Reference: PubChem BioAssay AID330 (DTP/NCI, 2004)
Values joined by “and” are separate entries in the source; they are usually repeats but may differ in a detail not shown here. Equal values may be shown once. Toxic doses and inconclusive results are not listed.

Test system: P388 leukemia ip, CD2F1 mice, survival T/C
Experiment: NCI In Vivo Anticancer Drug Screen. Data for tumor model P388 Leukemia (intraperitoneal) in CD2F1 (CDF1) mice
Settings: endpoint: median survival time, higher = longer survival
Method in brief: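 Mice carrying the transplanted tumor received test compound or vehicle. Survival was recorded in each group, and the value is the treated-group measurement divided by that of the vehicle-treated control group.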

[1] = dose: 50.0 mg/kg/injection, schedule: Q01DX009 (ip), vehicle: saline
[2] = dose: 100.0 mg/kg/injection, schedule: Q01DX009 (ip), vehicle: saline
[3] = dose: 200.0 mg/kg/injection, schedule: Q01DX009 (ip), vehicle: saline
[4] = dose: 100.0 mg/kg/injection, schedule: Q04DX002 (ip), vehicle: saline with Tween-80
[5] = dose: 50.0 mg/kg/injection, schedule: Q01DX005 (ip), vehicle: saline with Tween-80
[6] = dose: 100.0 mg/kg/injection, schedule: Q01DX005 (ip), vehicle: saline with Tween-80

With `CCOC(=O)C(Cc1ccc(N)cc1)N1C(=O)c2ccccc2C1=O` (stereo not drawn) the T/C (dose: 50.0 mg/kg/injection, schedule: Q01DX009 (ip), vehicle: distilled water + Tween-80 + alcohol) was 100 % of control, the T/C (dose: 100.0 mg/kg/injection, schedule: Q01DX009 (ip), vehicle: distilled water + Tween-80 + alcohol) was 95 % of control and the T/C (dose: 200.0 mg/kg/injection, schedule: Q01DX009 (ip), vehicle: distilled water + Tween-80 + alcohol) was 91 % of control.
For `CC(=O)C1=CN(Cc2ccccc2)C=C(C)C1`, the T/C [1] was 99 % of control, the T/C [2] was 96 % of control and the T/C [3] was 96 % of control.
`CCCNC(=O)N1C2C3CCC(C)(OC3(C)C)C21` (stereo not drawn) was tested, and the T/C (dose: 50.0 mg/kg/injection, schedule: Q01DX005 (ip), vehicle: saline) was 106 % of control, the T/C (dose: 100.0 mg/kg/injection, schedule: Q01DX005 (ip), vehicle: saline) was 100 % of control and the T/C (dose: 200.0 mg/kg/injection, schedule: Q01DX005 (ip), vehicle: saline) was 98 % of control.
In the case of `Clc1cncc(N2CCNCC2)n1`, the T/C (dose: 12.5 mg/kg/injection, schedule: Q01DX009 (ip), vehicle: Klucel (hydroxypropylcellulose) (HPC)) is reported as 100 % of control, the T/C (dose: 25.0 mg/kg/injection, schedule: Q01DX009 (ip), vehicle: Klucel (hydroxypropylcellulose) (HPC)) is reported as 99 % of control and the T/C (dose: 50.0 mg/kg/injection, schedule: Q01DX009 (ip), vehicle: Klucel (hydroxypropylcellulose) (HPC)) is reported as 108 % of control and 91 % of control.
In the case of `O=NNc1ncc(Br)cc1Br`, the T/C (dose: 1.56 mg/kg/injection, schedule: Q01DX009 (ip), vehicle: water) is reported as 100 % of control, the T/C (dose: 3.12 mg/kg/injection, schedule: Q01DX009 (ip), vehicle: water) is reported as 99 % of control and 107 % of control and the T/C (dose: 6.25 mg/kg/injection, schedule: Q01DX009 (ip), vehicle: water) is reported as 107 % of control and 110 % of control. For the same compound, the T/C (dose: 12.5 mg/kg/injection, schedule: Q01DX005 (ip), vehicle: water) was 119 % of control and 122 % of control, the T/C (dose: 12.5 mg/kg/injection, schedule: Q01DX009 (ip), vehicle: water) was 122 % of control and the T/C (dose: 25.0 mg/kg/injection, schedule: Q01DX009 (ip), vehicle: water) was 122 % of control. The T/C (dose: 50.0 mg/kg/injection, schedule: Q01DX005 (ip), vehicle: water) was 154 % of control and 165 % of control and the T/C (dose: 100.0 mg/kg/injection, schedule: Q01DX005 (ip), vehicle: water) was 175 % of control and 190 % of control and 206 % of control.
With `C[C@@H]1O[C@H]2O[C@@H]3[C@@H](C)O[C@@H](c4ccc5c(c4O)C(=O)c4ccc(C[C@@](C)(O)CC(=O)O)c(O)c4C5=O)C[C@H]3O[C@H]2CC1=O` the T/C (dose: 23.5 mg/kg/injection, schedule: Q01DX005 (ip), vehicle: Klucel (hydroxypropylcellulose) (HPC)) was 105 % of control, the T/C (dose: 47.0 mg/kg/injection, schedule: Q01DX005 (ip), vehicle: Klucel (hydroxypropylcellulose) (HPC)) was 105 % of control and the T/C (dose: 94.0 mg/kg/injection, schedule: Q01DX005 (ip), vehicle: Klucel (hydroxypropylcellulose) (HPC)) was 97 % of control.
With `O=C(O)Cc1cccc2c(=O)cc(-c3ccccc3)oc12` the T/C (dose: 24.12 mg/kg/injection, schedule: Q01DX005 (ip), vehicle: saline) was 104 % of control, the T/C (dose: 30.0 mg/kg/injection, schedule: Q01DX009 (ip), vehicle: saline) was 101 % of control and 103 % of control and 106 % of control and the T/C (dose: 40.2 mg/kg/injection, schedule: Q01DX005 (ip), vehicle: saline) was 111 % of control. For the same compound, the T/C (dose: 44.0 mg/kg/injection, schedule: Q01DX009 (ip), vehicle: saline) was 109 % of control and 117 % of control and 122 % of control, the T/C (dose: 45.0 mg/kg/injection, schedule: Q01DX009 (ip), vehicle: sodium bicarbonate) was 116 % of control and the T/C [1] was 106 % of control. The T/C (dose: 60.0 mg/kg/injection, schedule: Q04DX002 (ip), vehicle: sodium bicarbonate) was 103 % of control, the T/C (dose: 67.0 mg/kg/injection, schedule: Q01DX001 (ip), vehicle: sodium bicarbonate) was 112 % of control and the T/C (dose: 90.0 mg/kg/injection, schedule: Q04DX002 (ip), vehicle: sodium bicarbonate) was 118 % of control. The T/C (dose: 100.0 mg/kg/injection, schedule: Q01DX001 (ip), vehicle: sodium bicarbonate) was 107 % of control, the T/C (dose: 111.67 mg/kg/injection, schedule: Q01DX005 (ip), vehicle: saline) was 153 % of control and the T/C (dose: 150.0 mg/kg/injection, schedule: Q01DX001 (ip), vehicle: sodium bicarbonate) was 106 % of control. The T/C (dose: 186.12 mg/kg/injection, schedule: Q01DX005 (ip), vehicle: saline) was 172 % of control, the T/C (dose: 200.0 mg/kg/injection, schedule: Q01DX001 (ip), vehicle: sodium bicarbonate) was 112 % of control and the T/C (dose: 223.0 mg/kg/injection, schedule: Q01DX001 (ip), vehicle: sodium bicarbonate) was 103 % of control. For the same compound, the T/C (dose: 300.0 mg/kg/injection, schedule: Q01DX001 (ip), vehicle: sodium bicarbonate) was 116 % of control, the T/C (dose: 333.0 mg/kg/injection, schedule: Q01DX001 (ip), vehicle: sodium bicarbonate) was 112 % of control and the T/C (dose: 400.0 mg/kg/injection, schedule: Q01DX001 (ip), vehicle: sodium bicarbonate) was 114 % of control. For the same compound, the T/C (dose: 500.0 mg/kg/injection, schedule: Q01DX001 (ip), vehicle: sodium bicarbonate) was 116 % of control.
`O=C1CCC(c2ccccc2)=NN1` was tested, and the T/C [1] was 100 % of control, the T/C [2] was 106 % of control and the T/C [3] was 103 % of control. The T/C (dose: 400.0 mg/kg/injection, schedule: Q01DX009 (ip), vehicle: saline) was 97 % of control.
In the case of `C=CC(Br)CCCBr` (stereo not drawn), the T/C (dose: 12.5 mg/kg/injection, schedule: Q04DX002 (ip), vehicle: saline with Tween-80) is reported as 106 % of control, the T/C (dose: 25.0 mg/kg/injection, schedule: Q04DX002 (ip), vehicle: saline with Tween-80) is reported as 112 % of control and the T/C (dose: 50.0 mg/kg/injection, schedule: Q04DX002 (ip), vehicle: saline with Tween-80) is reported as 101 % of control. The T/C [4] was 104 % of control.
With `Oc1cc(-c2ccc(Cl)cc2)c(O)cc1CN1CCOCC1` the T/C [4] was 92 % of control, the T/C (dose: 200.0 mg/kg/injection, schedule: Q04DX002 (ip), vehicle: saline with Tween-80) was 91 % of control and the T/C (dose: 400.0 mg/kg/injection, schedule: Q04DX002 (ip), vehicle: saline with Tween-80) was 92 % of control.
In the case of `ClCCCCN(CCN(CCCCCl)c1ccccc1)c1ccccc1`, the T/C (dose: 12.5 mg/kg/injection, schedule: Q04DX002 (ip), vehicle: saline) is reported as 100 % of control and the T/C (dose: 25.0 mg/kg/injection, schedule: Q04DX002 (ip), vehicle: saline) is reported as 101 % of control.
For `NC(=O)/C=C1\NC(=O)CS1`, the T/C (dose: 100.0 mg/kg/injection, schedule: Q01DX009 (ip), vehicle: saline sonified) was 95 % of control, the T/C (dose: 200.0 mg/kg/injection, schedule: Q01DX009 (ip), vehicle: saline sonified) was 90 % of control and the T/C (dose: 400.0 mg/kg/injection, schedule: Q01DX009 (ip), vehicle: saline sonified) was 95 % of control.
For `COc1cc2c3cc1Oc1c(OC)c(OC)cc4c1C(Cc1ccc(O)c(c1)-c1cc(ccc1OC)CC3N(C)CC2)N(C)CC4` (stereo not drawn), the T/C (dose: 0.78 mg/kg/injection, schedule: Q01DX009 (ip), vehicle: Klucel (hydroxypropylcellulose) (HPC)) was 106 % of control, the T/C (dose: 1.56 mg/kg/injection, schedule: Q01DX009 (ip), vehicle: Klucel (hydroxypropylcellulose) (HPC)) was 87 % of control and the T/C (dose: 3.13 mg/kg/injection, schedule: Q01DX009 (ip), vehicle: Klucel (hydroxypropylcellulose) (HPC)) was 104 % of control. The T/C (dose: 6.25 mg/kg/injection, schedule: Q01DX009 (ip), vehicle: Klucel (hydroxypropylcellulose) (HPC)) was 104 % of control.
In the case of `COc1cccc(C2OC3=C(Nc4ccc([N+](=O)[O-])cc4N3)C2=O)c1` (stereo not drawn), the T/C (dose: 50.0 mg/kg/injection, schedule: Q01DX005 (ip), vehicle: Klucel (hydroxypropylcellulose) (HPC)) is reported as 102 % of control, the T/C (dose: 100.0 mg/kg/injection, schedule: Q01DX005 (ip), vehicle: Klucel (hydroxypropylcellulose) (HPC)) is reported as 101 % of control and the T/C (dose: 200.0 mg/kg/injection, schedule: Q01DX005 (ip), vehicle: Klucel (hydroxypropylcellulose) (HPC)) is reported as 96 % of control.
For `C=CCN(C=O)CC(OCC)OCC`, the T/C (dose: 25.0 mg/kg/injection, schedule: Q01DX005 (ip), vehicle: saline with Tween-80) was 100 % of control, the T/C [5] was 97 % of control and the T/C [6] was 99 % of control.
With `C/C=C/N=NNc1ccccc1OC` the T/C (dose: 100.0 mg/kg/injection, schedule: Q04DX003 (ip), vehicle: saline + Tween-80 + alcohol) was 107 % of control.
`COc1ccccc1N/N=c1\c2nc3ccccc3nc1n(-c1ccccc1C)c(=S)n2-c1ccc(Cl)cc1` was tested, and the T/C [5] was 88 % of control, the T/C [6] was 94 % of control and the T/C (dose: 200.0 mg/kg/injection, schedule: Q01DX005 (ip), vehicle: saline with Tween-80) was 103 % of control.
For `CC(C)(C)c1ccc(SS(=O)(=O)c2ccc(C(C)(C)C)cc2)cc1`, the T/C (dose: 100.0 mg/kg/injection, schedule: Q01DX001 (ip), vehicle: saline with Tween-80) was 98 % of control, the T/C (dose: 100.0 mg/kg/injection, schedule: Q04DX003 (ip), vehicle: Klucel (hydroxypropylcellulose) (HPC)) was 97 % of control and the T/C (dose: 200.0 mg/kg/injection, schedule: Q01DX001 (ip), vehicle: saline with Tween-80) was 100 % of control. For the same compound, the T/C (dose: 200.0 mg/kg/injection, schedule: Q04DX003 (ip), vehicle: Klucel (hydroxypropylcellulose) (HPC)) was 104 % of control, the T/C (dose: 400.0 mg/kg/injection, schedule: Q01DX001 (ip), vehicle: saline with Tween-80) was 97 % of control and the T/C (dose: 400.0 mg/kg/injection, schedule: Q04DX003 (ip), vehicle: Klucel (hydroxypropylcellulose) (HPC)) was 105 % of control.
